Measured values from PubChem BioAssay (NCI).
“And” between values parts separate entries of the source, which are not always exact repeats. Identical values can stand only once.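 Assay format: 96-well plates, 48-hour exposure. Here, GI50 denotes the concentration required for 50% inhibition of growth. TGI denotes the concentration required for complete inhibition of growth.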

Assays:
Assay in all cases: DTP human tumour cell line panel, 48 h
A549 NSCLC = tested on: A549 NSCLC
ACHN renal = tested on: ACHN renal
NCI-H522 lung = tested on: NCI-H522 lung
MDA-MB-231 breast = tested on: MDA-MB-231 breast
UACC-257 melanoma = tested on: UACC-257 melanoma
HCT-15 colon = tested on: HCT-15 colon
UO-31 renal = tested on: UO-31 renal
SF-295 CNS = tested on: SF-295 CNS
SF-539 CNS = tested on: SF-539 CNS
KM12 colon = tested on: KM12 colon
MDA-MB-435 = tested on: MDA-MB-435
U251 CNS = tested on: U251 CNS
OVCAR-3 ovarian = tested on: OVCAR-3 ovarian
HT29 colon = tested on: HT29 colon
CCRF-CEM leukemia = tested on: CCRF-CEM leukemia
SNB-19 CNS = tested on: SNB-19 CNS
OVCAR-4 ovarian = tested on: OVCAR-4 ovarian
T-47D breast = tested on: T-47D breast
HL-60(TB) leukemia = tested on: HL-60(TB) leukemia
HOP-92 NSCLC = tested on: HOP-92 NSCLC
CAKI-1 renal = tested on: CAKI-1 renal
K-562 leukemia = tested on: K-562 leukemia
COLO 205 colon = tested on: COLO 205 colon
DU-145 prostate = tested on: DU-145 prostate
OVCAR-5 ovarian = tested on: OVCAR-5 ovarian
NCI-H23 lung = tested on: NCI-H23 lung
SR leukemia = tested on: SR leukemia
HCC-2998 colon = tested on: HCC-2998 colon
HCT-116 colon = tested on: HCT-116 colon
MOLT-4 leukemia = tested on: MOLT-4 leukemia
EKVX NSCLC = tested on: EKVX NSCLC
MDA-N = tested on: MDA-N
RPMI-8226 leukemia = tested on: RPMI-8226 leukemia
M14 melanoma = tested on: M14 melanoma
RXF 393 renal = tested on: RXF 393 renal
786-0 renal = tested on: 786-0 renal
BT-549 breast = tested on: BT-549 breast
NCI-H460 lung = tested on: NCI-H460 lung
SK-MEL-5 melanoma = tested on: SK-MEL-5 melanoma
PC-3 prostate = tested on: PC-3 prostate
OVCAR-8 ovarian = tested on: OVCAR-8 ovarian
SW-620 colon = tested on: SW-620 colon
LOX IMVI melanoma = tested on: LOX IMVI melanoma
HOP-62 NSCLC = tested on: HOP-62 NSCLC
NCI-H226 lung = tested on: NCI-H226 lung
MALME-3M melanoma = tested on: MALME-3M melanoma
MCF7 breast = tested on: MCF7 breast
SK-OV-3 ovarian = tested on: SK-OV-3 ovarian
NCI/ADR-RES ovarian = tested on: NCI/ADR-RES ovarian
SN12C renal = tested on: SN12C renal
HS 578T breast = tested on: HS 578T breast
TK-10 renal = tested on: TK-10 renal
UACC-62 melanoma = tested on: UACC-62 melanoma
IGROV1 ovarian = tested on: IGROV1 ovarian
SF-268 CNS = tested on: SF-268 CNS
SK-MEL-28 melanoma = tested on: SK-MEL-28 melanoma
SK-MEL-2 melanoma = tested on: SK-MEL-2 melanoma
A498 renal = tested on: A498 renal
SNB-75 CNS = tested on: SNB-75 CNS

Structure (SMILES): CCCCC1Cc2cc(O)ccc2-c2nc3cc(O)ccc3n21 (stereo not drawn) (tested in a mixture with another compound)
- TGI (A549 NSCLC): 38.6 µM
- TGI (ACHN renal): 33.7 µM
- TGI (NCI-H522 lung): 25 µM
- TGI (MDA-MB-231 breast): 31300 nM
- TGI (UACC-257 melanoma): 45600 nM
- TGI (HCT-15 colon): 25 µM
- TGI (UO-31 renal): 28.5 µM
- TGI (SF-295 CNS): 33.4 µM
- TGI (SF-539 CNS): 28500 nM
- TGI (KM12 colon): 75100 nM
- TGI (MDA-MB-435): 26100 nM
- TGI (U251 CNS): 27500 nM
- TGI (OVCAR-3 ovarian): 77700 nM
- TGI (HT29 colon): 31900 nM
- TGI (CCRF-CEM leukemia): 51800 nM
- TGI (SNB-19 CNS): 26300 nM
- TGI (OVCAR-4 ovarian): 30800 nM
- TGI (T-47D breast): > 100000 nM
- TGI (HL-60(TB) leukemia): 41900 nM
- TGI (HOP-92 NSCLC): 30.5 µM
- TGI (CAKI-1 renal): 89 µM
- TGI (K-562 leukemia): 41.3 µM
- TGI (COLO 205 colon): 29700 nM
- TGI (DU-145 prostate): > 100000 nM
- TGI (OVCAR-5 ovarian): 34.8 µM
- TGI (NCI-H23 lung): 72500 nM
- TGI (SR leukemia): 34000 nM
- TGI (HCC-2998 colon): 27400 nM
- TGI (HCT-116 colon): 27 µM
- TGI (MOLT-4 leukemia): 46900 nM
- TGI (EKVX NSCLC): 51900 nM
- TGI (MDA-N): 36300 nM
- TGI (RPMI-8226 leukemia): 31.5 µM
- TGI (M14 melanoma): 28600 nM
- TGI (RXF 393 renal): 35600 nM
- TGI (786-0 renal): 52900 nM
- TGI (BT-549 breast): 41.6 µM
- TGI (NCI-H460 lung): 32.9 µM
- TGI (SK-MEL-5 melanoma): 26300 nM
- TGI (PC-3 prostate): 53300 nM
- TGI (OVCAR-8 ovarian): 68800 nM
- TGI (SW-620 colon): 39500 nM
- TGI (LOX IMVI melanoma): 30.9 µM
- TGI (HOP-62 NSCLC): 30200 nM
- TGI (NCI-H226 lung): 46.3 µM
- TGI (MALME-3M melanoma): 57.8 µM
- TGI (MCF7 breast): 37.5 µM
- TGI (SK-OV-3 ovarian): 40.4 µM
- TGI (NCI/ADR-RES ovarian): 49.4 µM
- TGI (SN12C renal): 36 µM
- TGI (HS 578T breast): 35.1 µM
- TGI (TK-10 renal): 43.3 µM
- TGI (UACC-62 melanoma): 25.5 µM
- TGI (IGROV1 ovarian): 28900 nM
- TGI (SF-268 CNS): 33.3 µM

Structure (SMILES): CC1=NC(C)(COC(=O)C2(C)NC(C)(CO)CO2)COC1=O (stereo not drawn)
- TGI (A549 NSCLC): > 100 µM
- TGI (ACHN renal): > 100 µM
- TGI (NCI-H522 lung): > 100 µM
- TGI (MDA-MB-231 breast): > 100000 nM
- TGI (UACC-257 melanoma): > 100000 nM
- TGI (HCT-15 colon): > 100 µM
- TGI (UO-31 renal): > 100 µM
- TGI (SF-295 CNS): > 100 µM
- TGI (SF-539 CNS): > 100000 nM
- TGI (KM12 colon): > 100000 nM
- TGI (SK-MEL-28 melanoma): > 100000 nM
- TGI (MDA-MB-435): > 100000 nM
- TGI (U251 CNS): > 100000 nM
- TGI (OVCAR-3 ovarian): > 100000 nM
- TGI (HT29 colon): > 100000 nM
- TGI (CCRF-CEM leukemia): > 100000 nM
- TGI (SNB-19 CNS): > 100000 nM
- TGI (OVCAR-4 ovarian): > 100000 nM
- TGI (T-47D breast): > 100000 nM
- TGI (SK-MEL-2 melanoma): > 100000 nM
- TGI (HL-60(TB) leukemia): > 100000 nM
- TGI (HOP-92 NSCLC): > 100 µM
- TGI (CAKI-1 renal): > 100 µM
- TGI (K-562 leukemia): > 100 µM
- TGI (A498 renal): > 100000 nM
- TGI (COLO 205 colon): > 100000 nM
- TGI (DU-145 prostate): > 100000 nM
- TGI (OVCAR-5 ovarian): > 100 µM
- TGI (NCI-H23 lung): > 100000 nM
- TGI (SR leukemia): > 100000 nM
- TGI (HCC-2998 colon): > 100000 nM
- TGI (HCT-116 colon): > 100 µM
- TGI (MOLT-4 leukemia): > 100000 nM
- TGI (EKVX NSCLC): > 100000 nM
- TGI (MDA-N): > 100000 nM
- TGI (RPMI-8226 leukemia): > 100 µM
- TGI (M14 melanoma): > 100000 nM
- TGI (RXF 393 renal): > 100000 nM
- TGI (786-0 renal): > 100000 nM
- TGI (BT-549 breast): > 100 µM
- TGI (NCI-H460 lung): > 100 µM
- TGI (SK-MEL-5 melanoma): > 100000 nM
- TGI (PC-3 prostate): > 100000 nM
- TGI (OVCAR-8 ovarian): > 100000 nM
- TGI (SW-620 colon): > 100000 nM
- TGI (LOX IMVI melanoma): > 100 µM
- TGI (HOP-62 NSCLC): > 100000 nM
- TGI (NCI-H226 lung): > 100 µM
- TGI (MALME-3M melanoma): > 100 µM
- TGI (MCF7 breast): > 100 µM
- TGI (SK-OV-3 ovarian): > 100 µM
- TGI (NCI/ADR-RES ovarian): > 100 µM
- TGI (SN12C renal): > 100 µM
- TGI (HS 578T breast): > 100 µM
- TGI (TK-10 renal): > 100 µM
- TGI (SNB-75 CNS): > 100000 nM
- TGI (UACC-62 melanoma): > 100 µM
- TGI (IGROV1 ovarian): > 100000 nM
- TGI (SF-268 CNS): > 100 µM

Structure (SMILES): CCC1CC(O)c2c(O)c3c(c(O)c2C1O)C(=O)c1cccc(O)c1C3=O (stereo not drawn) (tested in a mixture with another compound)
- TGI (NCI-H522 lung): 0.0658 µM
- GI50 (MDA-MB-231 breast): 11.8 nM
- TGI (MDA-MB-231 breast): 164 nM and 404 nM
- GI50 (UACC-257 melanoma): 10.1 nM
- TGI (UACC-257 melanoma): 94.1 nM and 40.4 nM
- GI50 (HCT-15 colon): 23.7 nM
- TGI (UO-31 renal): 0.038 µM
- TGI (SF-539 CNS): 95.7 nM and 89.3 nM
- TGI (KM12 colon): 147 nM and 17.5 nM
- TGI (SK-MEL-28 melanoma): 71.2 nM and 61.2 nM
- TGI (MDA-MB-435): 71.3 nM and 20.7 nM
- TGI (U251 CNS): 230 nM and 331 nM
- TGI (OVCAR-3 ovarian): 72.1 nM and 31.2 nM
- TGI (HT29 colon): 181 nM and 202 nM
- TGI (CCRF-CEM leukemia): 85 nM and 44.1 nM
- TGI (SNB-19 CNS): 929 nM and 1340 nM
- TGI (OVCAR-4 ovarian): 93.2 nM and 82.1 nM
- TGI (T-47D breast): 180 nM and 35.2 nM
- TGI (SK-MEL-2 melanoma): 45.7 nM
- GI50 (HL-60(TB) leukemia): 17.7 nM
- TGI (HL-60(TB) leukemia): 86.6 nM and 74.4 nM
- TGI (CAKI-1 renal): 0.0706 µM
- TGI (K-562 leukemia): 0.0319 µM
- TGI (A498 renal): 30 nM
- TGI (COLO 205 colon): 93.9 nM and 19 nM
- TGI (DU-145 prostate): 135 nM and 651 nM
- TGI (OVCAR-5 ovarian): 0.0301 µM
- TGI (NCI-H23 lung): 79.5 nM and 186 nM
- TGI (SR leukemia): 60.5 nM and 40.6 nM
- TGI (HCC-2998 colon): 47.8 nM and 29.8 nM
- TGI (HCT-116 colon): 0.741 µM
- TGI (MOLT-4 leukemia): 75.5 nM and 47.9 nM
- TGI (EKVX NSCLC): 86.4 nM and 192 nM
- TGI (MDA-N): 93 nM and 63.9 nM
- TGI (RPMI-8226 leukemia): 0.0663 µM
- TGI (M14 melanoma): 43.4 nM and 17.3 nM
- TGI (RXF 393 renal): 32.6 nM and 45.9 nM
- TGI (786-0 renal): 758 nM and 1220 nM
- TGI (BT-549 breast): 0.0704 µM
- TGI (NCI-H460 lung): 0.271 µM
- TGI (SK-MEL-5 melanoma): 37.4 nM and 13.8 nM
- TGI (PC-3 prostate): 74.9 nM and 159 nM
- TGI (OVCAR-8 ovarian): 181 nM and 1190 nM
- TGI (SW-620 colon): 70.7 nM and 128 nM
- TGI (LOX IMVI melanoma): 0.0509 µM
- TGI (HOP-62 NSCLC): 197 nM and 1790 nM
- TGI (NCI-H226 lung): 0.0532 µM
- TGI (MALME-3M melanoma): 0.0547 µM
- TGI (MCF7 breast): 6.04 µM
- GI50 (SK-OV-3 ovarian): 11.1 nM
- TGI (SK-OV-3 ovarian): 5.7 µM
- GI50 (NCI/ADR-RES ovarian): 10.1 nM
- TGI (NCI/ADR-RES ovarian): 0.295 µM
- TGI (SN12C renal): 1.05 µM
- TGI (HS 578T breast): 0.331 µM
- TGI (SNB-75 CNS): 49 nM and 42.6 nM
- TGI (UACC-62 melanoma): 0.0396 µM
- TGI (IGROV1 ovarian): 239 nM and 1020 nM
- TGI (SF-268 CNS): 0.501 µM
